According to patent US12552790B2, “Positive modulators of the muscarinic acetylcholine receptor M4” (Vanderbilt University, priority 2023, dated 2026):

What was measured:
[1] = In vivo pharmacokinetic study in rat
[2] = Rat fraction unbound in brain; assay type: in vitro ADME; conditions: read-out: Rat Fu (brain)
Excerpt: (§1) Compounds may be tested in in vitro assays to investigate both metabolism and pharmacokinetics. These assays may be performed according to known methods as generally described in the following references: Conde-Ceide et al. ACS Med. Chem. Lett. 2015, 6, 716-720; Morris et al. J. Med. Chem. 2014, 57, 10192-10197; and Bubser et al. ACS Chem. Neurosci. 2014, 5, 920-942.

P450 3A4 = P450 3A4 (Homo sapiens, UniProt P08684); assay: P450 3A4 inhibition; assay type: in vitro ADME
Excerpt: as §1

Rat intrinsic clearance = assay type: in vitro ADME
Excerpt: as §1

[3] = Human intrinsic clearance; assay type: in vitro ADME
Excerpt: as §1

[4] = Rat fraction unbound in plasma; assay type: in vitro ADME; conditions: read-out: Rat Fu (plasma)
Excerpt: as §1

[5] = Dog fraction unbound in plasma; assay type: in vitro ADME; conditions: read-out: Dog Fu (plasma)
Excerpt: as §1

P450 2D6 = P450 2D6 (Homo sapiens, UniProt P10635); assay: P450 2D6 inhibition; assay type: in vitro ADME
Excerpt: as §1

[6] = In vivo pharmacokinetic study in dog
[7] = system: 68 primary molecular targets; assay: Eurofins LeadProfilingScreen (binding); conditions: 10 μM (binding), 68 targets
Excerpt: The screen includes 68 primary molecular targets, including several CNS targets recommended by the EMEA to evaluate drug dependence potential.

[8] = MDCK-MDR1 efflux ratio and permeability; assay type: in vitro ADME; conditions: dog, MDCK-MDR1
Excerpt: as §1

MDCK-MDR1 = MDCK-MDR1 efflux ratio and permeability; assay type: in vitro ADME; conditions: efflux ratio
Excerpt: as §1

Dog intrinsic clearance = assay type: in vitro ADME
Excerpt: as §1

[9] = Human fraction unbound in plasma; assay type: in vitro ADME; conditions: read-out: Human Fu (plasma)
Excerpt: as §1

P450 2C9 = P450 2C9 (Homo sapiens, UniProt P11712); assay: P450 2C9 inhibition; assay type: in vitro ADME
Excerpt: as §1

[10] = system: amphetamine-induced hyperlocomotion in male Sprague-Dawley rats; assay: Amphetamine-induced hyperlocomotion in rats; assay type: in vivo; conditions: rat; for percent reversal of amphetamine-induced hyperlocomotion: amphetamine 0.75 mg/kg s.c.
Experimental: Drugs: d-Amphetamine hemisulfate was obtained from Sigma (St. Louis, MO). Salt-correction was used to determine the correct amount of the d-amphetamine hemisulfate form in milligrams to add to sterile water in order to yield a 0.75 mg/mL solution, which would be dosed at 1 mL/kg body weight of each animal. […] The solutions were formulated so that animals were injected with a volume equal to 10 mL/kg body weight for all compounds. The appropriate amount according to the dosage was mixed in 10% Tween 80 (Sigma) in sterile water. The mixtures were then vortexed and stored in a 39° C. sonication bath for 1 hour, until in a solution or microsuspension (depending on dose).
Animals: Male Sprague-Dawley rats weighing 239-300 grams and averaging 265 g (Harlan, Inc., Indianapolis, IN) were used. They were housed in the animal care facility certified by the American Association for the Accreditation of Laboratory Animal Care (AALAC) under a 12-hour light/dark cycle (lights on: 6 a.m.; lights off: 6 p.m.) and had free access to food and water. The animals used in this experiment were food-deprived the evening before experimentation for oral dosing of compound/vehicle. The experimental protocols performed during the light cycle were approved by the Institutional Animals Care and Use Committee of Vanderbilt University and conformed to the guidelines established by the National Research Council Guide for the Care and Use of Laboratory Animals.
Amphetamine-induced Hyperlocomotion: Male Harlan Sprague Dawley rats were habituated in Smart Open Field locomotor activity test chambers (Hamilton-Kinder, San Diego, CA) with 16×16 photo beams to automatically record locomotor activity. […] They were monitored for an additional 30 minutes and then injected subcutaneously with vehicle or 0.75 mg/kg amphetamine. Animals were then monitored for an additional 60 minutes, for a total of 120 minutes. Data were expressed as changes in ambulation defined as total number of beam breaks per 5 minute interval. Terminal brain and plasma samples were collected at the end of the study for pharmacokinetic analysis.
Data Analysis: Behavioral data were analyzed using a two-way ANOVA with main effects of treatment and time. Post hoc analysis was performed using a Dunnett's t-test with all treatment groups compared to the Vehicle/amphetamine group (VAMP) group using GraphPad Prism V.5.04 (GraphPad Software, San Diego, CA). Data were graphed using GraphPad Prism V.5.04 (GraphPad Software, San Diego, CA). A probability of p≤0.05 was taken as the level of statistical significance. In addition, the total number of beam breaks from the amphetamine administration (65 min) to the end of the study (120 min) was calculated and graphed. Percent Reversal was calculated as follows using Microsoft Excel: In each animal, total ambulation from t=65 to t=120 was summed. The mean of each sum was calculated in the VAMP group. Then, for each animal, Percent Reversal was calculated with the following formula: Percent Reversal=100−{[(total ambulation in each animal from t=65 to t=120)/(mean of each sum from t=65 to t=120 in VAMP group)]*100}. The mean Percent Reversal, as well as the standard error, was calculated for each dose group using GraphPad Prism V5.04.

P450 2D6, sequence (P10635 whole entry): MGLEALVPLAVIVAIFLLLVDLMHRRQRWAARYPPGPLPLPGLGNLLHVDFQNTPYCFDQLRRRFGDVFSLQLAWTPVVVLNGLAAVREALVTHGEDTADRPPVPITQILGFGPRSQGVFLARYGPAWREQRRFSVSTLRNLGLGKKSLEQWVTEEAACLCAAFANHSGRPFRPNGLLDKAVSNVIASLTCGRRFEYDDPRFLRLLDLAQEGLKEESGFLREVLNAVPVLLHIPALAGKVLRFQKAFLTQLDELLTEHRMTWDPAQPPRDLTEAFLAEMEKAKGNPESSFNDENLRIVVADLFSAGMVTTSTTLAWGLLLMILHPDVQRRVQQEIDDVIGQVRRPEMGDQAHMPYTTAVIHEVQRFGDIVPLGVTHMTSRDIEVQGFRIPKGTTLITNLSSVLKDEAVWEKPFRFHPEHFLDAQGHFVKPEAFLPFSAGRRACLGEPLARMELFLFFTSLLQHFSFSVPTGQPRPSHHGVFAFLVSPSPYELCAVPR
P450 3A4, sequence (P08684 whole entry): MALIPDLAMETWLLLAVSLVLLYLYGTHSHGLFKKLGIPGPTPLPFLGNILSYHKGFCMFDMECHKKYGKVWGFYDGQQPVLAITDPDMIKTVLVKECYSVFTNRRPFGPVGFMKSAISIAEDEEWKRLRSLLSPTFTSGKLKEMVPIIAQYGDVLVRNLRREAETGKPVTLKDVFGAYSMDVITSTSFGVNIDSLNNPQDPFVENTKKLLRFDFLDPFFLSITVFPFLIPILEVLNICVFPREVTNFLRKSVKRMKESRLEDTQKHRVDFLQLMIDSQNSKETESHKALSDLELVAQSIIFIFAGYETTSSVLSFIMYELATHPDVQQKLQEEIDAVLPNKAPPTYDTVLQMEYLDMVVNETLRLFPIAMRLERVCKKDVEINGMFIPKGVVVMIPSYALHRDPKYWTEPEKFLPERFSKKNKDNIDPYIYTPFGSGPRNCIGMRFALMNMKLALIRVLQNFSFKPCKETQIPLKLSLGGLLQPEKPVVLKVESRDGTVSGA
P450 2C9, sequence (P11712 whole entry): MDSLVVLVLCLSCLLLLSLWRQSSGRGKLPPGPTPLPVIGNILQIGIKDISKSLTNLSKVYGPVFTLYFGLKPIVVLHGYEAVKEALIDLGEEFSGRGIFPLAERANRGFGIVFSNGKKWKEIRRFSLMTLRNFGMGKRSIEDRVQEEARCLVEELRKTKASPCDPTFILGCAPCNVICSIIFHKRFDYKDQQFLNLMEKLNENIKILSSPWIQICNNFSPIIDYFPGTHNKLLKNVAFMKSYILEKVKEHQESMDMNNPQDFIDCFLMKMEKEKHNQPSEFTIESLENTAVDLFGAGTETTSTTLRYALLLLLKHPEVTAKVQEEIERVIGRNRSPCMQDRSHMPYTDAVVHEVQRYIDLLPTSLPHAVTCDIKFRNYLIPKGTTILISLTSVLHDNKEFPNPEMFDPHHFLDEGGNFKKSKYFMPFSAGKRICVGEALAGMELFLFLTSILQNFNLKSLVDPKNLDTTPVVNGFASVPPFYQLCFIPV

## [2H]C1([2H])Oc2ccc(OC3CCN(c4nc5c(cc4C)C(=O)NC5)CC3)cc2OC1([2H])[2H] [Compound 3, 2-(4-((2,3-dihydrobenzo[b][1,4]dioxin-6-yl-2,2,3,3-d4)oxy)piperidin-1-yl)-3-methyl-6,7-dihydro-5H-pyrrolo[3,4-b]pyridin-5-one]
[1]; 3 mg/kg oral
  Rat oral F: >100%
[1]; brain, read-out: Rat brain: plasma Kp
  Kp: 1.2
[1]; brain, unbound, read-out: Rat brain: plasma Kp, uu
  Kp uu: 0.7
[1]; plasma, read-out: Rat CLp
  clearance: 16.9 mL/min/kg
[1]; plasma, read-out: Rat Elim. t1/2 (converted)
  half-life: 1.4 h
[1]; plasma, read-out: Rat Vss
  Vd: 1.6 L/kg
[2]
  fraction unbound: 0.015
P450 3A4
  IC50: > 100 µM
Rat intrinsic clearance
  CLint scaled: 90 mL/min/kg
[3]
  CLint scaled: 15 mL/min/kg
[4]
  fraction unbound: 0.026
[5]
  fraction unbound: 0.042
P450 2D6
  IC50: > 100 µM
[6]; 3 mg/kg oral
  Dog oral F: 89%
[6]; plasma, read-out: Dog CLp
  clearance: 1.8 mL/min/kg
[6]; plasma, read-out: Dog Elim. t1/2 (converted)
  half-life: 7.6 h
[6]; plasma, read-out: Dog Vss
  Vd: 1 L/kg
[7]
  inhibition of each target in the LeadProfilingScreen: < 50%
[8]
  Papp A→B: 45.5 ×10⁻⁶ cm/s
MDCK-MDR1
  MDCK-MDR1 ER: 1.3
Dog intrinsic clearance
  CLint scaled: 19 mL/min/kg
[9]
  fraction unbound: 0.022
P450 2C9
  IC50: > 100 µM
[10]; 1 mg/kg oral gavage
  percent reversal of amphetamine-induced hyperlocomotion: 27.5%
[10]; 1.8 mg/kg oral gavage
  percent reversal of amphetamine-induced hyperlocomotion: 40.1%
[10]; 3 mg/kg oral gavage
  percent reversal of amphetamine-induced hyperlocomotion: 59.1%
[10]; 5.6 mg/kg oral gavage
  percent reversal of amphetamine-induced hyperlocomotion: 60.9%
[10]; systemic administration
  reversal of amphetamine-induced hyperlocomotion (in words): significant and sustained reversal
